This is an account of results in PubChem BioAssay AID179 (DTP/NCI, 2004).

pEC50, pIC50: −log10 of the molar value. Where “and” joins values, the source holds several entries; their conditions need not be identical. Equal values may be shown once. Calls of active or inactive are those of the source.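 The calls were made as follows: active = compounds giving half or more protection of infected cells from virus-caused growth loss, again on retest; inactive = the rest.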 Where a SMILES comes first, the peptide text is derived from it. The star is where a group is joined. Boc = CC(C)(C)OC(=O)*; OBn = c1ccc(CO*)cc1

For this test, the system named is CEM cells HIV-1 protection, formazan growth assay. Put plainly: NCI AIDS Antiviral Assay. The settings on record: for pIC50: measured here: growth of uninfected CEM cells. Put shortly: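 Protection of CEM cells against HIV-1 measured as cell growth via soluble formazan read-out, with five concentrations tested on both infected and uninfected cells; failure to protect may reflect toxicity.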

Regarding `C/C(=N\Nc1ccccc1Br)c1cccc(/C(C)=N/Nc2ccccc2Br)n1`, the pEC50 – broadly, −log10 of the EC50, conventionally taken in molar units – was less than 4.00 and the pIC50 (usually the IC50 on a negative log10 scale, so that one unit is a factor of ten) is 4.07. In the case of `CCC1C/C(=N\N=C2CC(C)(C)NC(C)(C)C2)CC(C)(C)N1` (stereo not given), the pEC50 was less than 3.70 and the negative logarithm of the IC50 (pIC50) is less than 3.70. Take `C=C1CCCCCCCCCCC1S(=O)c1ccccc1` (stereo not given): the pEC50 was less than 3.70 and the pIC50 is 4.92. In the case of `OCCNCCN=C1CCC(=NCCNCCO)CC1`, the pEC50 was less than 3.70 and the negative-log IC50 (pIC50) is 4.49.

On to `c1ccc(-c2nc(-c3ccccc3SSc3ccccc3-c3nc(-c4ccccc4)nn3-c3ccccc3)n(-c3ccccc3)n2)cc1`, for which the pEC50 is less than 4.00 and the pIC50 is less than 4.00.

`CCN(CC)CCOC(=O)c1cc2ccccc2n1Cc1ccccc1`: the pEC50 is less than 4.00 and the pIC50 is less than 4.00. Consider `CCOC(=O)NNC(=O)NC12CC3CC(CC(C3)C1)C2`, for which the result was inactive. As to `CCOP(=O)(OCC)OC1c2[nH]cc(C(=O)OCc3ccccc3)c2-c2cc(C(=O)OC)[nH]c2C1OC` (stereo not given), the pEC50 was less than 3.70 and the negative-log IC50 (pIC50) is 4.78. As to `CC(C)(C)c1cc(CCC(=O)Nc2ccccc2[N+](=O)[O-])cc(NC#N)n1`, the outcome was inactive.

As for `CC(NC(=O)C(NC(=O)OC(C)(C)C)C(C)C)C(=O)N1CCCC1C(=O)NCC(=O)NC(C(=O)NCC(=O)OCc1ccccc1)C(C)C` (stereo not given) (Boc-VAPGVG-OBn; configuration not given here), the pEC50 is less than 3.70 and the pIC50 was less than 3.70. For `CC(C)Cc1cnc(CC(C)C)c(-c2cc3ccccc3[nH]2)n1`, the pEC50 was less than 5.05 and the negative-log IC50 (pIC50) was less than 5.05.

On to `COC1(CC[C@H](C)COC2OC(CO)C(O)C(O)C2O)O[C@H]2C[C@H]3[C@@H]4CC=C5C[C@@H](OC6OC(CO)C(O)C(OC7OC(CO)C(O)C(O)C7O)C6OC6OC(C)C(O)C(O)C6O)CC[C@]5(C)[C@H]4CC[C@]3(C)[C@H]2[C@@H]1C` (stereo not given in full), for which the pEC50 was less than 3.70 and the negative-log IC50 (pIC50) is 5.41. For `O=C(Nc1cc2cc([N+](=O)[O-])ccc2oc1=O)c1cccs1`, in that order: less than 4.21 and less than 4.21. In the same order, the values of `O=C(OCc1ccccc1)N1CCNCCNCCN(C(=O)OCc2ccccc2)CCNCC1` are less than 3.70 and 3.95. In the same order, the values of `CN(C)c1ccc(/C=C(\NC(=O)c2ccccc2)c2nc3ccccc3c(=O)o2)cc1` are less than 4.00 and less than 4.00. Turning to `Cc1ccc2nc3c(C)cc(=O)cc-3sc2c1`, the pEC50 was less than 4.11 and the negative-log IC50 (pIC50) is 4.30. As to `S=C(NCCc1ccccn1)N/N=C/c1ccccn1`, the pEC50 was less than 5.70 and the pIC50 is 7.59. In the same order, the values of `CCOP(=O)(CN=C(c1ccccc1)c1ccccc1)OCC` are less than 3.70 and less than 3.70.

`CC(C)CC1=[N+]=C(NC#N)N=C(CCC(=O)Nc2ccccc2[N+](=O)[O-])C1`: the pEC50 is less than 3.17 and the pIC50 was less than 3.17.

Consider `Cc1ncc(N)c(C(=O)O)n1`, for which the pEC50 is less than 2.79 and the negative-log IC50 (pIC50) was less than 2.79. As to `N#CC(NNC(=O)Cc1ccccc1)c1c(O)ccc2ccccc12` (stereo not given), the pEC50 was less than 4.25 and the pIC50 was 5.41. In the same order, the values of `N#CC1C(=O)NC(=O)C(C#N)C12CCCC(C(F)(F)F)C2` (stereo not given) are less than 3.70 and less than 3.70.

As for `CCCCCCCC/C=C\CCCCCCC(F)C(=O)O` (stereo not given), the negative-log EC50 (pEC50) is 4.48 and the pIC50 is less than 3.70. For `Cc1ccc2c(c1)nc(N)n[n+]2[O-]`, in that order: less than 4.00 and less than 4.00.

As for `Cc1ccc(-c2c(C#N)c(-c3ccc(Cl)cc3)c(C#N)c(=O)n2NS(=O)(=O)c2ccccc2)cc1`, the pEC50 was less than 3.70 and the pIC50 is 4.53. With `CCNc1ccc(-c2ccccc2)nc1N1CCN(C(=O)c2cc3cc(OC)ccc3[nH]2)CC1`, the pEC50 was less than 3.70 and the pIC50 is 4.62. For the compound `CCC(C)C(NC(=O)c1ccccc1SC(=O)CCC[n+]1ccccc1)C(N)=O` (stereo not given), the pEC50 was less than 4.12 and the negative-log IC50 (pIC50) is 5.32. Turning to `Cn1c(=O)n2n(c1=O)C1C3C4C3C3C5(COCC135)C42` (stereo not given), the pEC50 was less than 3.70 and the pIC50 is less than 3.70. For the compound `C[C@]12Cc3cn[nH]c3C(=O)C1CC[C@@H]1C2CC[C@@]2(C)C1CC[C@@H]2O` (stereo not given in full), the pEC50 is 4.70 and the pIC50 is 4.66.

Consider `O=Nc1ccc(O)c(Cl)c1`, for which the pEC50 is less than 3.70 and the negative-log IC50 (pIC50) was 4.88. In the same order, the values of `O=c1cnn(C2OC(CO)C(O)C(F)C2O)c(=O)[nH]1` (stereo not given) are less than 3.70 and less than 3.70.

Turning to `S=c1[nH]nc(COc2ccc(Cl)cc2)n1-c1ccccc1`, the pEC50 is less than 3.70 and the pIC50 is 4.51.

Take `COc1cccc(/C=N/[N-]C(=O)c2ccncc2)c1[O-].[Co+2].[OH3+]`: the pEC50 is less than 4.68 and the negative logarithm of the IC50 (pIC50) is less than 4.68.

For the compound `C=C1CN(S(=O)(=O)c2ccc(C)cc2)CCCN(C(=O)OC)CCCN(S(=O)(=O)c2ccc(C)cc2)C1`, the pEC50 was less than 3.70 and the pIC50 was 3.97. In the same order, the values of `CCOC(=O)c1ccc(C(=O)n2ccnc2)[nH]1` are less than 3.70 and less than 3.70. For `O=C(Cc1ccccc1)N/N=C(/c1nc2ccc([N+](=O)[O-])cc2[nH]c1=O)C(O)c1ccccc1Cl` (stereo not given), in that order: less than 4.14 and less than 4.14. In the same order, the values of `CC(=O)OC(Cc1c(O)c2c(C)cccc2oc1=O)C(C)(C)O` (stereo not given) are less than 3.70 and 4.04. As for `CC(C)(C)C1CCC(=O)/C(=C/CC2CC(=O)N(c3ccccc3)C(=O)C2)C1` (stereo not given), the pEC50 is less than 3.70 and the pIC50 is 4.95. For `CC[P+](c1ccccc1)(N(C)C)N(C)C`, in that order: less than 3.70 and 3.95. For `N#CC(C#N)=CNC(=S)Nc1ccc(Cl)c(Cl)c1`, in that order: less than 3.70 and 4.82. With `CCOC(=O)c1c(C(CC)C(=O)OC(C)C)cc2n(c1=O)Cc1c-2nc2ccccc2c1Cl` (stereo not given), the pEC50 was less than 5.00 and the negative-log IC50 (pIC50) was less than 5.00. As for `O=C(CC(=O)Nc1ccccc1)NNC(c1cc(N=Nc2ccc(Br)cc2)ccc1O)P(O)O` (stereo not given), the pEC50 is less than 4.00 and the pIC50 is 5.40. For the compound `O=C1c2cccn2-c2ccccc2OC1(CC1CC1)c1ccccc1` (stereo not given), the pEC50 is less than 3.70 and the negative logarithm of the IC50 (pIC50) is 4.94. In the same order, the values of `COc1cccc(OC)c1/C=N\N1C(=O)c2ccccc2C1=O` are less than 3.94 and 4.92.

For the compound `O=c1oc2ccccc2cc1F`, the pEC50 is less than 3.52 and the negative-log IC50 (pIC50) is less than 3.52. For the compound `CN1CCC2(CC1)OC(c1ccccc1)C(c1ccccc1)O2` (stereo not given), the pEC50 was less than 3.70 and the pIC50 is 3.94. In the same order, the values of `COc1ccc(/C(=C/n2ccnc2)C(=O)c2ccc(OC)c(OC)c2)cc1` are less than 3.70 and less than 3.70. For `Cc1cn(COCCS(=O)c2ccccc2)c(=O)[nH]c1=O` (stereo not given), in that order: less than 3.70 and less than 3.70. In the same order, the values of `COc1ccc(-c2coc3c4c(c5c(c3c2=O)OC(C)(C)CC5)OC(C)(C)C=C4)cc1OC` are less than 4.40 and 4.91. Regarding `N#C/C(=C\c1ccccc1)c1ccccc1[N+](=O)[O-]`, the pEC50 was less than 3.70 and the negative-log IC50 (pIC50) is 4.90. As for `O=C1CC2(c3ccccc3)ON=C(c3ccccc3)N2c2ccccc2N1` (stereo not given), the pEC50 was less than 3.70 and the pIC50 is 4.07. For `C/C(C=O)=C\c1cccc(F)c1`, in that order: less than 3.80 and less than 3.80.

As for `[O-]/N=N\c1on[n+](CCc2ccccc2)c1Cc1c(/N=N/[O-])on[n+]1CCc1ccccc1`, the outcome was inactive. The same measure, in the same setting: the result for `COc1ccccc1NC(=O)CC(=O)n1nc(C)c(N=Nc2ccccc2F)c1C` reads “inactive”. `CC1(C)OC(=O)C(=Cc2ccccc2Br)C(=O)O1`: the pEC50 was less than 3.38 and the negative logarithm of the IC50 (pIC50) was 5.89. With `CCCc1cc(=O)oc2c3c(cc(OC(C)C)c12)O[C@H](C)[C@@H](C)C3=O`, the pEC50 was 4.11 and the negative-log IC50 (pIC50) is 3.92. Consider `CCOC(=O)C(/C=N\C(=S)Nc1ccc(OCC)cc1)=C(/O)c1ccccc1`, for which the pEC50 is less than 3.70 and the pIC50 was less than 3.70. On to `O=c1cc(CCl)n2cnc3c(ncn3C3OC(CO)C(O)C3O)c2n1` (stereo not given), for which the outcome was inactive. With `CC(=O)O[C@H]1CC[C@]2(C)C3CC[C@]4(C)C([C@H](C)CCCC(C)C)CCC4[C@]3(/C=N/O)n3c(=O)n(-c4ccccc4)c(=O)n3[C@]2(/C=N\O)C1` (stereo not given in full), the pEC50 is less than 3.70 and the pIC50 is 4.96. In the same order, the values of `CN(C)CCNc1c2ccccc2nc2cccc([N+](=O)[O-])c12` are less than 5.70 and 7.62. For `Cc1c(O)c2ccc(Cl)cc2n(C)c1=O`, in that order: less than 3.70 and less than 3.70.

On to `N#CC1(C#N)C(C#N)(C#N)C12CCCCC2`, for which the pEC50 is less than 4.70 and the negative logarithm of the IC50 (pIC50) was 5.00. As to `Cc1cn(C2CC(N(C)O)C(CO)O2)c(=O)[nH]c1=O` (stereo not given), the negative logarithm of the EC50 (pEC50) was 4.50 and < 3.70; the pIC50 was < 3.70 and 4.48. With `O=C(/C=C/c1ccccc1)c1ccc(Cl)cc1Cl`, the pEC50 is less than 5.57 and the pIC50 is less than 5.57. For the compound `Cc1cc(C)cc(NC(N)=S)c1`, the pEC50 was less than 3.00 and the pIC50 was less than 3.00. Take `O=C(O)/C(Cl)=C(\Cl)C(=O)Nc1ccc(Cl)c(Cl)c1Cl`: the result was inactive. For `CN(CC1=C(O)C(=O)C(CN(C)Cc2c(O)ccc3ccccc23)=C(O)C1=O)Cc1c(O)ccc2ccccc12`, the pEC50 was less than 4.76 and the negative-log IC50 (pIC50) was less than 4.76. Regarding `COc1ccc(NC(C)=O)cc1N1C(=O)/C(=C\c2cc(OC)c(OC)c(OC)c2)SC1c1ccccc1` (stereo not given), the result was inactive. Consider `Cc1cc(C)n2c(=O)[nH]nc2c1`, for which the pEC50 was less than 3.70 and the pIC50 was 3.75. With `O=S(=O)(O)c1ccc(Nc2ccnc3cc(Cl)ccc23)cc1`, the pEC50 is less than 3.70 and the pIC50 is less than 3.70.

Turning to `CCCCNC(=O)C1=C(C)NC(C)=C(C(=O)NCCCC)C1`, the pEC50 is less than 3.70 and the pIC50 was less than 3.70.
